Reference: patent US10758549B2, “Compositions of obeticholic acid and methods of use” (Intercept Pharmaceuticals, Inc., priority 2015, dated 2020)
Values joined by “and” are separate entries in the source; they are usually repeats but may differ in a detail not shown here. Equal entries are not always repeated.

Tests used:
[1] = target: T1, farnesoid X receptor (FXR) (Homo sapiens, UniProt Q96RI1); conditions: in vitro / on FXR; cited from earlier work
T1 sequence (Q96RI1 1-486): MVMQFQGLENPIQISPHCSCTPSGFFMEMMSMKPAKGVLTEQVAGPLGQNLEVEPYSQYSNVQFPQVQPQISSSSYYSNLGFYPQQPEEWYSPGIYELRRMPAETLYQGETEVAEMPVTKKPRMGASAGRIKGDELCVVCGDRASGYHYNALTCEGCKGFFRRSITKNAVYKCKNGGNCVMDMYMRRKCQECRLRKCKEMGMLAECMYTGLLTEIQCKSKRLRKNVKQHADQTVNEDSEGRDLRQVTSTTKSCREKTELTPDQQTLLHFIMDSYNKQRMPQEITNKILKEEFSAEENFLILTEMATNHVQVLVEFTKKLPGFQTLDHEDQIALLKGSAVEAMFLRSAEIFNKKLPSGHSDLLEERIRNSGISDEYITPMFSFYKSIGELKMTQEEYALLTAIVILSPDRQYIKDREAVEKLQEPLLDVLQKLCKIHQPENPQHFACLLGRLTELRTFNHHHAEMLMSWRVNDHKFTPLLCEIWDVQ

[2] = Particle size distribution, dry dispersion laser diffraction (Sympatec); assay type: physicochemical; conditions: for D10 / D25 / D50 / D75 / D90 / D95: in µm (unit assumed); for PSD X10 / PSD X50 / PSD X90: spiral jet mill, JetPharma
Method: Particle size of agglomeration was identified as playing a primary role in the release rate and dissolution and variability in the blend uniformity and content uniformity of the tablet formulations. In order to obtain an appropriate particle size distribution (PSD), milling of obeticholic acid was investigated. The particle size of the formulations was reduced using comilling and jet milling to improve its dissolution release profile. Particle size analysis was performed using a dry dispersion method and analyzed by laser diffraction using Sympatec equipment.
Particle size distribution was assessed using a dry dispersion method analyzed by laser diffraction using a Sympatec Laser Helos/KF-Magic F71000 with Rodos Dispersing Unit. The OCA sample (0.5 g sample) was tested as a dry powder. The parameters for the validated particle size analysis method are described below:
Apparatus: Sympatec Laser Helos/KF-Magic F71000 with Rodos Dispersing Unit, Vibri sampling unit with Sniffer rotation, Nilfisk exhaustion or equivalent.
Dispersing principle: Dry.

Surface area by BET = assay type: physicochemical
Method: The impact of jet-milling on API particle size and surface area is detailed in Table 4-1 and Table 4-2, respectively. Surface area was tested per a BET (Brunauer, Emmett, and Teller theory). The BET method for analyzing surface area is based on adsorption of gas on a surface. The amount of gas adsorbed at a given pressure allows a determination of the surface area.

[3] = Before jet-milling (unmicronized)

Structure (SMILES): CCC1C(O)C2C3CCC(C(C)CCC(=O)O)C3(C)CCC2C2(C)CCC(OC3OC(C(=O)O)C(O)C(O)C3O)CC12 (stereo not drawn) [3-glucuronide]
- pharmacological activity relative to OCA (parent drug) [1]: minimal pharmacologic activity

Structure (SMILES): CC[C@H]1[C@@H](O)[C@@H]2[C@H](CC[C@]3(C)[C@@H]([C@H](C)CCC(=O)O)CC[C@@H]23)[C@@]2(C)CC[C@@H](O)C[C@@H]12 [Comilled with 0.46 mm screen]
- D10 [2]: 5.7
- D25 [2]: 122.9
- D50 [2]: 217.5
- D75 [2]: 283.0
- D90 [2]: 335.1
- D95 [2]: 360.3

Structure (SMILES): CC[C@H]1[C@@H](O)[C@@H]2[C@H](CC[C@]3(C)[C@@H]([C@H](C)CCC(=O)O)CC[C@@H]23)[C@@]2(C)CC[C@@H](O)C[C@@H]12 [Comilled with 0.61 mm screen]
- D10 [2]: 5.5 and 4.1
- D25 [2]: 106.6 and 102.2
- D50 [2]: 223.2 and 263.1
- D75 [2]: 320.8 and 351.0
- D90 [2]: 393.8 and 410.9
- D95 [2]: 429.8 and 447.9

Structure (SMILES): CC[C@H]1[C@@H](O)[C@@H]2[C@H](CC[C@]3(C)[C@@H]([C@H](C)CCC(=O)O)CC[C@@H]23)[C@@]2(C)CC[C@@H](O)C[C@@H]12 [Comilled with 1.14 mm screen]
- D10 [2]: 7.9
- D25 [2]: 73.9
- D50 [2]: 239.3
- D75 [2]: 340.8
- D90 [2]: 412.0
- D95 [2]: 452.7

Structure (SMILES): CC[C@H]1[C@@H](O)[C@@H]2[C@H](CC[C@]3(C)[C@@H]([C@H](C)CCC(=O)O)CC[C@@H]23)[C@@]2(C)CC[C@@H](O)C[C@@H]12 [JP1307001]
- PSD X10 [2]: X10: 1 μm
- PSD X50 [2]: X50: 5 μm
- PSD X90 [2]: X90: 20 μm

Structure (SMILES): CC[C@H]1[C@@H](O)[C@@H]2[C@H](CC[C@]3(C)[C@@H]([C@H](C)CCC(=O)O)CC[C@@H]23)[C@@]2(C)CC[C@@H](O)C[C@@H]12 [JP1408001]
- PSD X10 [2]: X10: 1 μm
- PSD X50 [2]: X50: 5 μm
- PSD X90 [2]: X90: 19 μm

Structure (SMILES): CC[C@H]1[C@@H](O)[C@@H]2[C@H](CC[C@]3(C)[C@@H]([C@H](C)CCC(=O)O)CC[C@@H]23)[C@@]2(C)CC[C@@H](O)C[C@@H]12 [JP1408002]
- PSD X10 [2]: X10: 1 μm
- PSD X50 [2]: X50: 4 μm
- PSD X90 [2]: X90: 14 μm

Structure (SMILES): CC[C@H]1[C@@H](O)[C@@H]2[C@H](CC[C@]3(C)[C@@H]([C@H](C)CCC(=O)O)CC[C@@H]23)[C@@]2(C)CC[C@@H](O)C[C@@H]12 [JP1408003]
- PSD X10 [2]: X10: 1 μm
- PSD X50 [2]: X50: 4 μm
- PSD X90 [2]: X90: 15 μm

Structure (SMILES): CC[C@H]1[C@@H](O)[C@@H]2[C@H](CC[C@]3(C)[C@@H]([C@H](C)CCC(=O)O)CC[C@@H]23)[C@@]2(C)CC[C@@H](O)C[C@@H]12 [Jet mill, classifier speed 2000 rpm]
- D16 [2]: 2.3 µm
- D84 [2]: 57.2 µm
- D99 [2]: 97.9 µm
- D10 [2]: 1.7
- D50 [2]: 10.9
- D90 [2]: 69.3

Structure (SMILES): CC[C@H]1[C@@H](O)[C@@H]2[C@H](CC[C@]3(C)[C@@H]([C@H](C)CCC(=O)O)CC[C@@H]23)[C@@]2(C)CC[C@@H](O)C[C@@H]12 [Jet mill, classifier speed 4000 rpm]
- D16 [2]: 1.6 µm
- D84 [2]: 17 µm
- D99 [2]: 36 µm
- D10 [2]: 1.3
- D50 [2]: 3.8
- D90 [2]: 21.7

Structure (SMILES): CC[C@H]1[C@@H](O)[C@@H]2[C@H](CC[C@]3(C)[C@@H]([C@H](C)CCC(=O)O)CC[C@@H]23)[C@@]2(C)CC[C@@H](O)C[C@@H]12 [Jet mill, classifier speed 5000 rpm]
- D16 [2]: 1.7 µm
- D84 [2]: 15.2 µm
- D99 [2]: 55.8 µm
- D10 [2]: 1.3
- D50 [2]: 4.2
- D90 [2]: 18.9

Structure (SMILES): CC[C@H]1[C@@H](O)[C@@H]2[C@H](CC[C@]3(C)[C@@H]([C@H](C)CCC(=O)O)CC[C@@H]23)[C@@]2(C)CC[C@@H](O)C[C@@H]12 [Jet mill, classifier speed 10000 rpm]
- D16 [2]: 1.4 µm
- D84 [2]: 4.7 µm
- D99 [2]: 9 µm
- D10 [2]: 1.1
- D50 [2]: 2.7
- D90 [2]: 5.6

Structure (SMILES): CC[C@H]1[C@@H](O)[C@@H]2[C@H](CC[C@]3(C)[C@@H]([C@H](C)CCC(=O)O)CC[C@@H]23)[C@@]2(C)CC[C@@H](O)C[C@@H]12 [OCA Example # 1]
- Dv (10) ([2]; After jet-milling (micronized)): 0.7 µm
- Dv (50) ([2]; After jet-milling (micronized)): 6.1 µm
- Dv (90) ([2]; After jet-milling (micronized)): 18.8 µm
- Dv (99) ([2]; After jet-milling (micronized)): 30.8 µm
- Dv (10) [2, 3]: 2.6 µm
- Dv (50) [2, 3]: 26 µm
- Dv (90) [2, 3]: 162 µm
- Dv (99) [2, 3]: 419 µm
- Surface Area (m^2/kg) (Surface area by BET; After jet-milling (micronized)): 3178 m^2/kg
- Surface Area (m^2/kg) (Surface area by BET; [3]): 1557 m^2/kg

Structure (SMILES): CC[C@H]1[C@@H](O)[C@@H]2[C@H](CC[C@]3(C)[C@@H]([C@H](C)CCC(=O)O)CC[C@@H]23)[C@@]2(C)CC[C@@H](O)C[C@@H]12 [OCA Example # 2]
- Dv (10) ([2]; After jet-milling (micronized)): 0.6 µm
- Dv (50) ([2]; After jet-milling (micronized)): 4.4 µm
- Dv (90) ([2]; After jet-milling (micronized)): 17.8 µm
- Dv (99) ([2]; After jet-milling (micronized)): 34.6 µm
- Dv (10) [2, 3]: 1.8 µm
- Dv (50) [2, 3]: 19 µm
- Dv (90) [2, 3]: 231 µm
- Dv (99) [2, 3]: 509 µm
- Surface Area (m^2/kg) (Surface area by BET; After jet-milling (micronized)): 3848 m^2/kg
- Surface Area (m^2/kg) (Surface area by BET; [3]): 1854 m^2/kg

Structure (SMILES): CC[C@H]1[C@@H](O)[C@@H]2[C@H](CC[C@]3(C)[C@@H]([C@H](C)CCC(=O)O)CC[C@@H]23)[C@@]2(C)CC[C@@H](O)C[C@@H]12 [OCA Example # 3]
- Dv (10) ([2]; After jet-milling (micronized)): 0.7 µm
- Dv (50) ([2]; After jet-milling (micronized)): 4.9 µm
- Dv (90) ([2]; After jet-milling (micronized)): 14.1 µm
- Dv (99) ([2]; After jet-milling (micronized)): 25.9 µm
- Dv (10) [2, 3]: 5.3 µm
- Dv (50) [2, 3]: 39 µm
- Dv (90) [2, 3]: 221 µm
- Dv (99) [2, 3]: 513 µm
- Surface Area (m^2/kg) (Surface area by BET; After jet-milling (micronized)): 3412 m^2/kg
- Surface Area (m^2/kg) (Surface area by BET; [3]): 809 m^2/kg

Structure (SMILES): CC[C@H]1[C@@H](O)[C@@H]2[C@H](CC[C@]3(C)[C@@H]([C@H](C)CCC(=O)O)CC[C@@H]23)[C@@]2(C)CC[C@@H](O)C[C@@H]12 [Unmilled API (no comil)]
- D10 [2]: 4.8 and 3.3
- D50 [2]: 218.6 and 167.7
- D75 [2]: 335.7 and 273.7
- D90 [2]: 427.6 and 355.6
- D95 [2]: 472.6 and 398.2
- D10 ([2]; listed as Unmilled API): 4.8
- D50 ([2]; listed as Unmilled API): 218.6
- D90 ([2]; listed as Unmilled API): 427.6
